{
  "source": "patent US20090192167A1",
  "about": "(priority 2005, published 2009)",
  "key": {"Pyricularia oryzae [1]": {"tested_on": "Pyricularia oryzae", "assay_type": "in vivo", "conditions": "granule, nursery box, inoculated 30 days after treatment, lesions examined after 7 days"}, "Pyricularia oryzae [2]": {"tested_on": "Pyricularia oryzae", "assay_type": "in vivo", "conditions": "granule, submerged application, inoculated 14 days after treatment, lesions examined after 7 days"}, "Pyricularia oryzae [3]": {"tested_on": "Pyricularia oryzae", "assay_type": "in vivo", "conditions": "inoculated 1 day after spraying, lesions counted after 7 days"}, "Chilo suppressalis [4]": {"tested_on": "Chilo suppressalis", "conditions": "in vivo"}, "Chilo suppressalis [5]": {"tested_on": "Chilo suppressalis", "conditions": "in vivo", "remark": "listed apart in the source"}, "Chilo suppressalis [6]": {"tested_on": "Chilo suppressalis", "conditions": "in vivo", "remark": "listed apart in the source"}, "[7]": {"conditions": "amount of treated chemical 100 gai/box"}, "[8]": {"conditions": "amount of treated chemical 150 gai/box"}, "[9]": {"conditions": "amount of treated chemical 60 gai/box"}},
  "note": "Where two headings read alike, the source gives them in different places.",
  "data": [
    {"compound": "Cc1cc(C(F)(C(F)(F)F)C(F)(F)F)cc(C)c1NC(=O)c1cccc(NC(=O)c2cccnc2Cl)c1", "note": "[Compound 106, N-(2,6-dimethyl-4-heptafluoroisopropyl)phenyl 3-[(2-chloropyridine-3-yl)carbonylamino]benzamide]", "values": [
      {"measurement": "Pyricularia oryzae Control value", "setting": "Pyricularia oryzae [1]; 5 gai/box", "result": 4},
      {"measurement": "Pyricularia oryzae Control value", "setting": "Pyricularia oryzae [2]; 300 (gai/box)", "result": 3}
    ]},
    {"compound": "O=C(Nc1cccc(C(=O)Nc2c(Br)cc(C(F)(C(F)(F)F)C(F)(F)F)cc2SC(F)(F)F)c1)c1ccccc1", "note": "[Compound 210]", "values": [
      {"measurement": "Pyricularia oryzae Control value", "setting": "Pyricularia oryzae [3]; [7]", "result": 0},
      {"measurement": "Mortality (%)", "setting": "Chilo suppressalis [4]", "result": 95, "unit": "%"}
    ]},
    {"compound": "Cc1cc(C(F)(C(F)(F)F)C(F)(F)F)cc(C)c1NC(=O)c1cccc(NC(=O)c2ccccc2)c1F", "note": "[Compound 601, N-(2,6-dimethyl-4-heptafluoroisopropyl)phenyl 3-(benzoylamino)-2-fluorobenzamide]", "values": [
      {"measurement": "Pyricularia oryzae Control value", "setting": "Pyricularia oryzae [3]; [7]", "result": 2},
      {"measurement": "Mortality (%)", "setting": "Chilo suppressalis [4]", "result": 95, "unit": "%"}
    ]},
    {"compound": "Cc1cc(C(F)(C(F)(F)F)C(F)(F)F)cc(C)c1NC(=O)c1cccc(NC(=O)c2cccnc2Cl)c1F", "note": "[Compound 639]", "values": [
      {"measurement": "Pyricularia oryzae Control value", "setting": "Pyricularia oryzae [1]; 5 gai/box", "result": 5},
      {"measurement": "Pyricularia oryzae Control value", "setting": "Pyricularia oryzae [2]; 300 (gai/box)", "result": 0}
    ]},
    {"compound": "Cc1cc(C(F)(C(F)(F)F)C(F)(F)F)cc(C)c1NC(=O)c1cccc(N(C)C(=O)c2ccccc2)c1F", "note": "[Compound 1208]", "values": [
      {"measurement": "Pyricularia oryzae Control value", "setting": "Pyricularia oryzae [3]; [7]", "result": 5},
      {"measurement": "Mortality (%)", "setting": "Chilo suppressalis [4]", "result": 95, "unit": "%"}
    ]},
    {"compound": "Cc1cc(C(F)(C(F)(F)F)C(F)(F)F)cc(C)c1NC(=O)c1cccc(N(C)C(=O)c2ccc(C#N)cc2)c1F", "note": "[Compound 1217]", "values": [
      {"measurement": "Mortality (%)", "setting": "Chilo suppressalis [5]", "result": 95, "unit": "%"},
      {"measurement": "Pyricularia oryzae Control value", "setting": "Pyricularia oryzae [1]; 5 gai/box", "result": 0},
      {"measurement": "Mortality (%)", "setting": "Chilo suppressalis [6]", "result": 95, "unit": "%"},
      {"measurement": "Pyricularia oryzae Control value", "setting": "Pyricularia oryzae [2]; 300 (gai/box)", "result": 5}
    ]},
    {"compound": "Cc1cc(C(F)(C(F)(F)F)C(F)(F)F)cc(C)c1NC(=O)c1cccc(N(C)C(=O)c2cccnc2Cl)c1F", "note": "[Compound 1245]", "values": [
      {"measurement": "Pyricularia oryzae Control value", "setting": "Pyricularia oryzae [1]; 5 gai/box", "result": 5},
      {"measurement": "Pyricularia oryzae Control value", "setting": "Pyricularia oryzae [2]; 300 (gai/box)", "result": 0}
    ]},
    {"compound": "Cc1cc(C(F)(C(F)(F)F)C(F)(F)F)cc(C)c1NC(=O)c1cccc(N(C)C(=O)c2cccnc2F)c1F", "note": "[Compound 1246]", "values": [
      {"measurement": "Pyricularia oryzae Control value", "setting": "Pyricularia oryzae [1]; 5 gai/box", "result": 0},
      {"measurement": "Pyricularia oryzae Control value", "setting": "Pyricularia oryzae [2]; 300 (gai/box)", "result": 4}
    ]},
    {"compound": "Cc1cc(C(F)(C(F)(F)F)C(F)(F)F)cc(C)c1NC(=O)c1cccc(NC(=O)OCC(F)(F)F)c1F", "note": "[Compound 3000]", "values": [
      {"measurement": "Pyricularia oryzae Control value", "setting": "Pyricularia oryzae [3]; [7]", "result": 3},
      {"measurement": "Mortality (%)", "setting": "Chilo suppressalis [4]", "result": 90, "unit": "%"}
    ]},
    {"compound": "Cc1cc(C(F)(C(F)(F)F)C(F)(F)F)cc(C)c1NC(=O)c1cccc(NC(=O)OC(CF)CF)c1", "note": "[Compound 3001]", "values": [
      {"measurement": "Pyricularia oryzae Control value", "setting": "Pyricularia oryzae [3]; [7]", "result": 0},
      {"measurement": "Mortality (%)", "setting": "Chilo suppressalis [4]", "result": 95, "unit": "%"}
    ]},
    {"compound": "Cc1cc(C(F)(C(F)(F)F)C(F)(F)F)cc(C)c1NC(=O)c1cccc(NC(=O)OCCCl)c1F", "note": "[Compound 3002]", "values": [
      {"measurement": "Pyricularia oryzae Control value", "setting": "Pyricularia oryzae [3]; [7]", "result": 3},
      {"measurement": "Mortality (%)", "setting": "Chilo suppressalis [4]", "result": 90, "unit": "%"}
    ]},
    {"compound": "Cc1ccc(C(=O)NCC(NC(=O)OC(C)C)C(C)C)cc1", "note": "(stereo not shown) [Compound 3003]", "values": [
      {"measurement": "Mortality (%)", "setting": "Chilo suppressalis [5]", "result": 0, "unit": "%"},
      {"measurement": "Pyricularia oryzae Control value", "setting": "Pyricularia oryzae [1]; 15 gai/box", "result": 100},
      {"measurement": "Mortality (%)", "setting": "Chilo suppressalis [6]", "result": 0, "unit": "%"},
      {"measurement": "Pyricularia oryzae Control value", "setting": "Pyricularia oryzae [3]; [8]", "result": 100},
      {"measurement": "Pyricularia oryzae Control value", "setting": "Pyricularia oryzae [2]; 450 (gai/box)", "result": 100},
      {"measurement": "Mortality (%)", "setting": "Chilo suppressalis [4]", "result": 0, "unit": "%"}
    ]},
    {"compound": "Cc1ccc(C(=O)NCC(NC(=O)OC(C)C)C(C)(C)C)cc1", "note": "(stereo not shown) [Compound 3004]", "values": [
      {"measurement": "Mortality (%)", "setting": "Chilo suppressalis [5]", "result": 0, "unit": "%"},
      {"measurement": "Pyricularia oryzae Control value", "setting": "Pyricularia oryzae [1]; 15 gai/box", "result": 100},
      {"measurement": "Mortality (%)", "setting": "Chilo suppressalis [6]", "result": 0, "unit": "%"},
      {"measurement": "Pyricularia oryzae Control value", "setting": "Pyricularia oryzae [3]; [8]", "result": 100},
      {"measurement": "Pyricularia oryzae Control value", "setting": "Pyricularia oryzae [2]; 450 (gai/box)", "result": 100},
      {"measurement": "Mortality (%)", "setting": "Chilo suppressalis [4]", "result": 0, "unit": "%"}
    ]},
    {"compound": "CC(C)OC(=O)NC(CNC(=O)c1cc2ccccc2o1)C(C)C", "note": "(stereo not shown) [Compound 3005]", "values": [
      {"measurement": "Mortality (%)", "setting": "Chilo suppressalis [5]", "result": 0, "unit": "%"},
      {"measurement": "Pyricularia oryzae Control value", "setting": "Pyricularia oryzae [1]; 15 gai/box", "result": 100},
      {"measurement": "Mortality (%)", "setting": "Chilo suppressalis [6]", "result": 0, "unit": "%"},
      {"measurement": "Pyricularia oryzae Control value", "setting": "Pyricularia oryzae [3]; [8]", "result": 100},
      {"measurement": "Pyricularia oryzae Control value", "setting": "Pyricularia oryzae [2]; 450 (gai/box)", "result": 100},
      {"measurement": "Mortality (%)", "setting": "Chilo suppressalis [4]", "result": 0, "unit": "%"}
    ]},
    {"compound": "Cc1ccc(C(=O)NCC(NC(=O)OCC(F)(F)F)C(C)C)cc1", "note": "(stereo not shown) [Compound 3006]", "values": [
      {"measurement": "Mortality (%)", "setting": "Chilo suppressalis [5]", "result": 0, "unit": "%"},
      {"measurement": "Pyricularia oryzae Control value", "setting": "Pyricularia oryzae [1]; 7.5 gai/box", "result": 100},
      {"measurement": "Mortality (%)", "setting": "Chilo suppressalis [6]", "result": 0, "unit": "%"},
      {"measurement": "Pyricularia oryzae Control value", "setting": "Pyricularia oryzae [3]; [9]", "result": 100},
      {"measurement": "Pyricularia oryzae Control value", "setting": "Pyricularia oryzae [2]; 225 (gai/box)", "result": 100},
      {"measurement": "Mortality (%)", "setting": "Chilo suppressalis [4]", "result": 0, "unit": "%"}
    ]},
    {"compound": "Cc1ccc(C(=O)NCC(NC(=O)OCC(F)(F)F)C(C)(C)C)cc1", "note": "(stereo not shown) [Compound 3007]", "values": [
      {"measurement": "Pyricularia oryzae Control value", "setting": "Pyricularia oryzae [1]; 7.5 gai/box", "result": 100},
      {"measurement": "Pyricularia oryzae Control value", "setting": "Pyricularia oryzae [3]; [9]", "result": 100},
      {"measurement": "Pyricularia oryzae Control value", "setting": "Pyricularia oryzae [2]; 225 (gai/box)", "result": 100},
      {"measurement": "Mortality (%)", "setting": "Chilo suppressalis [4]", "result": 5, "unit": "%"}
    ]},
    {"compound": "CC(C)C(CNC(=O)c1cc2ccccc2o1)NC(=O)OCC(F)(F)F", "note": "(stereo not shown) [Compound 3008]", "values": [
      {"measurement": "Mortality (%)", "setting": "Chilo suppressalis [5]", "result": 0, "unit": "%"},
      {"measurement": "Pyricularia oryzae Control value", "setting": "Pyricularia oryzae [1]; 7.5 gai/box", "result": 100},
      {"measurement": "Mortality (%)", "setting": "Chilo suppressalis [6]", "result": 0, "unit": "%"},
      {"measurement": "Pyricularia oryzae Control value", "setting": "Pyricularia oryzae [3]; [9]", "result": 100},
      {"measurement": "Pyricularia oryzae Control value", "setting": "Pyricularia oryzae [2]; 225 (gai/box)", "result": 100},
      {"measurement": "Mortality (%)", "setting": "Chilo suppressalis [4]", "result": 0, "unit": "%"}
    ]}
  ]
}
